How the values were obtained:
hERG = hERG (Homo sapiens, UniProt Q12809); experiment: Inhibition of hERG (unknown origin) at 30 uM by patch clamp assay relative to control
Relaxin receptor 1 = target: T1, Relaxin receptor 1 (Mus musculus, UniProt Q6R6I7); experiment: Agonist activity at mouse RXFP1 stably expressed in HEK293 cells assessed as intracellular cAMP accumulation incubated for 30 mins by HTRF assay; format: functional, cell-based
T1 sequence (Q6R6I7 whole entry): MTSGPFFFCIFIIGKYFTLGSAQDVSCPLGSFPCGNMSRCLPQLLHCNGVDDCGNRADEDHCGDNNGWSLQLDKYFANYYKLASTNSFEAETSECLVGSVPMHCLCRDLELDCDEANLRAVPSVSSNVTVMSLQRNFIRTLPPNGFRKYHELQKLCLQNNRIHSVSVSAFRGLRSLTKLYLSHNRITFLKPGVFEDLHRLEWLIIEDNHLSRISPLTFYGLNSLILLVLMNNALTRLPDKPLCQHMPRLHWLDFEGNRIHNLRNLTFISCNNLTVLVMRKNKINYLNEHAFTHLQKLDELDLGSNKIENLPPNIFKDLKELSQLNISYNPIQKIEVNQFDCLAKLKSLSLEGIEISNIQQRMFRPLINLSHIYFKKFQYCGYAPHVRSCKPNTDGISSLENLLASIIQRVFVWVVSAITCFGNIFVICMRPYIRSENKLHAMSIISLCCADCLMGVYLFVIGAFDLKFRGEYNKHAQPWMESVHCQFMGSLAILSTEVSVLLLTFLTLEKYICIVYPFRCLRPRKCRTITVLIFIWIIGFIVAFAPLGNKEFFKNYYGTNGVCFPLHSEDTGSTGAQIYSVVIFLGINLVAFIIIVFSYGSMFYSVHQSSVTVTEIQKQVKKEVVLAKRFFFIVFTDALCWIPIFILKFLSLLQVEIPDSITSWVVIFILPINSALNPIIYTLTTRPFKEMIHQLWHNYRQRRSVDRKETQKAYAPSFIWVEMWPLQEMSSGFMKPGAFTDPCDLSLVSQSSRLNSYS

[1] = Half life in Sprague-Dawley rat at 1 mg/kg, iv; format: ADME, organism-based; conditions: in vivo
L-type calcium channel = L-type calcium channel (Homo sapiens, UniProt O60840+Q01668+Q13698+Q13936); experiment: Inhibition of L-type calcium channel (unknown origin) at 10 uM by patch clamp assay relative to control
Cytochrome P450 2C9 = Cytochrome P450 2C9 (Homo sapiens, UniProt P11712); experiment: Inhibition of CYP2C9 (unknown origin)
Cytochrome P450 1A2 = target: T2, Cytochrome P450 1A2 (Homo sapiens, UniProt P05177); experiment: Inhibition of CYP1A2 (unknown origin)
T2 sequence (P05177 whole entry): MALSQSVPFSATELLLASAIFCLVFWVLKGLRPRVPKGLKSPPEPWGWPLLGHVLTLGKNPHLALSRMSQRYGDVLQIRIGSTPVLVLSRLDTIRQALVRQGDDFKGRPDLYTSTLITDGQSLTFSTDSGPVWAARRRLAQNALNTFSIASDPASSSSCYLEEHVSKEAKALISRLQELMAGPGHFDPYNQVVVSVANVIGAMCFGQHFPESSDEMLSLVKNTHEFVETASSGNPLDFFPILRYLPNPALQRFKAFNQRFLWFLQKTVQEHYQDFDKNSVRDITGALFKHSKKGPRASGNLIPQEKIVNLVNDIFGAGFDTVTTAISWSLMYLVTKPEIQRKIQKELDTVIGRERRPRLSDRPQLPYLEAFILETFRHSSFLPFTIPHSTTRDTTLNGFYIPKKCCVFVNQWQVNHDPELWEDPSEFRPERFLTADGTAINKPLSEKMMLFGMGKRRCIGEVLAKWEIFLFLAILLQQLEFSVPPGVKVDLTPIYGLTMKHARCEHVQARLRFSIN

Mus musculus = experiment: Expansion of interpubic ligament in estrogen-treated female C57BL/6 mouse assessed as symphysis widening at 25 mg/kg, iv administered on day 7 and measured on day 8 by microCT analysis (reference value: 17.6 %); format: functional; conditions: time 1 day
Nav1.5 = Nav1.5 (Homo sapiens, UniProt Q14524); experiment: Inhibition of human Nav1.5 at 10 uM by patch clamp assay relative to control
[2] = Microsomal stability in mouse liver microsomes assessed as half life; format: ADME, Microsome
Cytochrome P450 3A4 = Cytochrome P450 3A4 (Homo sapiens, UniProt P08684); experiment: Inhibition of CYP3A4 (unknown origin)
Cytochrome P450 2C8 = target: T3, Cytochrome P450 2C8 (Homo sapiens, UniProt P10632); experiment: Inhibition of CYP2C8 (unknown origin)
T3 sequence (P10632 whole entry): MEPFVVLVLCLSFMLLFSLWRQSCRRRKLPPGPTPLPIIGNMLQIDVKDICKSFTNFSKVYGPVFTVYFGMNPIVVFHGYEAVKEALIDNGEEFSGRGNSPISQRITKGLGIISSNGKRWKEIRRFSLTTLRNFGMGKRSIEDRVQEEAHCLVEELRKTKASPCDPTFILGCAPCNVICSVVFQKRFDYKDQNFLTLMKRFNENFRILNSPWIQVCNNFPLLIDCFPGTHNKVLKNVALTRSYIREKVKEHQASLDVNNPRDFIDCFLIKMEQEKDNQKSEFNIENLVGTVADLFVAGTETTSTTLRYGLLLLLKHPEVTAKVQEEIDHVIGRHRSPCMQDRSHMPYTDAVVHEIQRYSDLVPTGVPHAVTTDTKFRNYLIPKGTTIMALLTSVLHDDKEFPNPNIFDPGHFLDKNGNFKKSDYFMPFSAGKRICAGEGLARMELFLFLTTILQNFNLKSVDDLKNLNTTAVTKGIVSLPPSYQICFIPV

[3] = Total AUC in Sprague-Dawley rat at 1 mg/kg, iv; format: ADME, organism-based; conditions: in vivo

Cytochrome P450 3A4, sequence (P08684 whole entry): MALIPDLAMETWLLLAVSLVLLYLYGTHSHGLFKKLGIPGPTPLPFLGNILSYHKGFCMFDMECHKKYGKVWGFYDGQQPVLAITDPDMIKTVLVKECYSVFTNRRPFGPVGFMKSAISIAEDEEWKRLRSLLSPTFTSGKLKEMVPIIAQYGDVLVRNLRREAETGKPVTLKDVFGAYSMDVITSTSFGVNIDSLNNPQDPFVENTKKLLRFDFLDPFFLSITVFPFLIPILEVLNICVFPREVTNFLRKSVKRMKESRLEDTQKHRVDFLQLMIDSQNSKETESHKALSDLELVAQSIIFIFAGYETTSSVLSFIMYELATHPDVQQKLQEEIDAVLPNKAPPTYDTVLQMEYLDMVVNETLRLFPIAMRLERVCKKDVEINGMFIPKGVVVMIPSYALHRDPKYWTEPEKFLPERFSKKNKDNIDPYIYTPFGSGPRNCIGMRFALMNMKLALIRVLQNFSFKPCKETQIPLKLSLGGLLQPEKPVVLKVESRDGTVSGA
Nav1.5, sequence (Q14524 whole entry): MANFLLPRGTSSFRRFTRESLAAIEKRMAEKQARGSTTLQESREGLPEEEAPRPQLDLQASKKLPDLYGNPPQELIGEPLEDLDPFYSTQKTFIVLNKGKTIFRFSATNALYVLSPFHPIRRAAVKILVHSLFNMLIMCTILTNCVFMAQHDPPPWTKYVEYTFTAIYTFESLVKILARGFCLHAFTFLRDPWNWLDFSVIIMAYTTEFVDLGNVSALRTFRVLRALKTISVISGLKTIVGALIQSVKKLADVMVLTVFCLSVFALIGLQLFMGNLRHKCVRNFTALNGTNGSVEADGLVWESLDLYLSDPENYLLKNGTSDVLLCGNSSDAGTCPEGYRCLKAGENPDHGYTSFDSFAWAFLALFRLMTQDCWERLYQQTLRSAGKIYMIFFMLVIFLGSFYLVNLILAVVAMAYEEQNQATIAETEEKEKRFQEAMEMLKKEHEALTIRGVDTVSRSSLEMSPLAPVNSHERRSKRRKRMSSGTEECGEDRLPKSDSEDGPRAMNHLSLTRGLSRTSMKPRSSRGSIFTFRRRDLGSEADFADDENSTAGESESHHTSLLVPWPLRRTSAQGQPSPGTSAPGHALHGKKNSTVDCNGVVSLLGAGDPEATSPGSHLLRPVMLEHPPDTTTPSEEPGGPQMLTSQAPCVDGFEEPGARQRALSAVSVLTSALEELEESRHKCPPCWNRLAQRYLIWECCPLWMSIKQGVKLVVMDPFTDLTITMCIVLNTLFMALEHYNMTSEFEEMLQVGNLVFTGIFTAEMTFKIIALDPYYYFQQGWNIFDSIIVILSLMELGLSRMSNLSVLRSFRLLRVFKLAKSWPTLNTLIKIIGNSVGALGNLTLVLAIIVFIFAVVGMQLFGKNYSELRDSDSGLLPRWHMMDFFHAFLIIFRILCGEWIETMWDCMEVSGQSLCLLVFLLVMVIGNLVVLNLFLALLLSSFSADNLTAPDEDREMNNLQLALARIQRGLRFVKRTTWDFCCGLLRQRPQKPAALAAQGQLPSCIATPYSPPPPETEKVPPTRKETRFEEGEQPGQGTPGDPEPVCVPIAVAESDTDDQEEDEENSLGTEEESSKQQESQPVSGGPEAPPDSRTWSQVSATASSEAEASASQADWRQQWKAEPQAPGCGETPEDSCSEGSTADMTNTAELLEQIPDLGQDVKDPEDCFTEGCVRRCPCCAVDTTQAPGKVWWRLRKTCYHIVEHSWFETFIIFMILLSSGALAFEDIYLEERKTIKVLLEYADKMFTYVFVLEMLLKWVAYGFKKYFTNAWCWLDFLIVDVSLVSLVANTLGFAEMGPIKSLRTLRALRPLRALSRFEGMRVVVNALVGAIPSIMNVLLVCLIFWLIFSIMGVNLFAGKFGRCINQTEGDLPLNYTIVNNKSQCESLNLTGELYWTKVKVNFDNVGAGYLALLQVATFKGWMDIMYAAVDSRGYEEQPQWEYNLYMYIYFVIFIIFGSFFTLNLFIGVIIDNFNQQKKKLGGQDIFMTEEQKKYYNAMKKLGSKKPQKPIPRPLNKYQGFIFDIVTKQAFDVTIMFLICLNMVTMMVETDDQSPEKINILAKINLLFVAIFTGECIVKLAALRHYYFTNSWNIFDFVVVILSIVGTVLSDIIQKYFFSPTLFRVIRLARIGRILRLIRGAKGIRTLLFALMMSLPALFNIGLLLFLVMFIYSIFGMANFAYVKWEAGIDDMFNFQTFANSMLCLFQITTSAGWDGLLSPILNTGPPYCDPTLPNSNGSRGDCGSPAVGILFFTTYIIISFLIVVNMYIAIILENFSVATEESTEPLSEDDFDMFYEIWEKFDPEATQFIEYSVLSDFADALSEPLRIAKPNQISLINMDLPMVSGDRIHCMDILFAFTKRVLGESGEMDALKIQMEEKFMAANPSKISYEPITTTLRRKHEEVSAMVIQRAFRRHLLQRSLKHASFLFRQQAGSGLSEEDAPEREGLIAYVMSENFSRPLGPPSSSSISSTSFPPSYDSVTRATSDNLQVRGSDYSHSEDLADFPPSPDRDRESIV
hERG, sequence (Q12809 whole entry): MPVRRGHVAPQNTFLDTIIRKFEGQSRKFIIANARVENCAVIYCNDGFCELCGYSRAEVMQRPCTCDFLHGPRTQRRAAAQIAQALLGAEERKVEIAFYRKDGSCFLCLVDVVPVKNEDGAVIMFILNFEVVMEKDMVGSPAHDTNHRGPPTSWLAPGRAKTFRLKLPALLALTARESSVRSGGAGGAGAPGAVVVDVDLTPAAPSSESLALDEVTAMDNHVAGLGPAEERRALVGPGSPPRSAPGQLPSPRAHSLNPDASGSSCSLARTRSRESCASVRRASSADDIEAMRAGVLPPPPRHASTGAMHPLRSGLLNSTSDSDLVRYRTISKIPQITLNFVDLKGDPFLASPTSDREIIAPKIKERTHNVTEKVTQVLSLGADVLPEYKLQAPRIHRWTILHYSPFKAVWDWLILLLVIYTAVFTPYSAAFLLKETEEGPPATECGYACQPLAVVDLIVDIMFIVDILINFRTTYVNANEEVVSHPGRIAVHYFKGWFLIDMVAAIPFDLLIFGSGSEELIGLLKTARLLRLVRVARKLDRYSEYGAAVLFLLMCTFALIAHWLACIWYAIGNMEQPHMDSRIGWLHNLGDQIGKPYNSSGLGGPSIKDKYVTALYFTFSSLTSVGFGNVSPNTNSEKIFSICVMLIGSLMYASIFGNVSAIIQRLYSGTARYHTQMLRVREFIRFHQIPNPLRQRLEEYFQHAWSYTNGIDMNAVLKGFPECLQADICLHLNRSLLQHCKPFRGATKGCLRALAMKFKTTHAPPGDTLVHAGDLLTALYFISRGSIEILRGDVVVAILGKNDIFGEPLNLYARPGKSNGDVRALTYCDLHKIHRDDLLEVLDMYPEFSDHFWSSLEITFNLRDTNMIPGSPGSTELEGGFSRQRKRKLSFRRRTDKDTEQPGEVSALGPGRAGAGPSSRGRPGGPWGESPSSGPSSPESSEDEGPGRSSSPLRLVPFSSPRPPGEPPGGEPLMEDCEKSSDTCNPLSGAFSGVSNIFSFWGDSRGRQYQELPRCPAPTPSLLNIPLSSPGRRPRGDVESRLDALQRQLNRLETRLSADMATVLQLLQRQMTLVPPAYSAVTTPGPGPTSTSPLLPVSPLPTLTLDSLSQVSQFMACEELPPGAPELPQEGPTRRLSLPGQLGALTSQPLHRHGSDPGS
Cytochrome P450 2C9, sequence (P11712 whole entry): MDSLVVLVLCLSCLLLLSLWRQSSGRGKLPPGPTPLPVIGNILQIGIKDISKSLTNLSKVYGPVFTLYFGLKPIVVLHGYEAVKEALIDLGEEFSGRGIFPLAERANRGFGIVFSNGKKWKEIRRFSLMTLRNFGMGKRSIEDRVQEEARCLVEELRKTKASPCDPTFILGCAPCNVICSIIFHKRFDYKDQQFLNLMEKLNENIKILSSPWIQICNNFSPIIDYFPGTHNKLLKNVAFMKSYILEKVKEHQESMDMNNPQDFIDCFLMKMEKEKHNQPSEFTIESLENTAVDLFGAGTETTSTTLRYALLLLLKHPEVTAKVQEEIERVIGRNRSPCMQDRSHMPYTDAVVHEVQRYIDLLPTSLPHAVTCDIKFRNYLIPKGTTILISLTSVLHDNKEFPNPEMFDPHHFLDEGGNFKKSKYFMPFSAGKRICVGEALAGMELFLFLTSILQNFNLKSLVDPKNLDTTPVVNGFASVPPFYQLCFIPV

EC50 (Relaxin receptor 1): 0.03 µM | half-life [1]: 4.43 h | inhibition at 10 µM (L-type calcium channel): 33% | IC50 (Cytochrome P450 2C9): 4 µM | IC50 (Cytochrome P450 1A2): 4.6 µM | half-life [2]: > 2 h | IC50 (Cytochrome P450 3A4): > 20 µM | IC50 (Cytochrome P450 2C8): 2.6 µM | AUC [3]: 9.6 µM·h
SMILES: CNC(=O)OC(C(=O)O)c1ccc(F)c(-c2ccc(OC)c(C(=O)N[C@H]3[C@@H](C(=O)Nc4ccc(F)c(C(F)(F)F)c4)[C@H]4CC[C@@H]3/C4=C\C3CC3)c2)c1 (stereo in doubt; 39)
inhibition at 30 µM (hERG): 7% | Activity (Mus musculus): 500.4% | inhibition at 10 µM (Nav1.5): 59%
